Test system: murine fibroblasts (NIH3T3) over-expressing human IGF-1 receptor
Assay: Inhibition of IGF-stimulated cell proliferation (BrdU incorporation), Test (c)
Assay type: cell-based
Conditions: inhibition of IGF-stimulated proliferation in NIH3T3 over-expressing human IGF-1 receptor
Description: c) Inhibition of IGF-stimulated Cell Proliferation
The construction of murine fibroblasts (NIH3T3) over-expressing human IGF-1 receptor has been described by Lammers et al (EMBO J, 8, 1369-1375, 1989). These cells show a proliferative response to IGF-I which can be measured by BrdU incorporation into newly synthesised DNA. Compound potency was determined as causing inhibition of the IGF-stimulated proliferation in the following assay:
Compounds are initially dissolved in DMSO to 10 mM, followed by dilutions in DMEM+1% FCS+glutamine to give a range from […] in 1-0.00045% DMSO final concentration in assay well.
Exponentially growing NIH3T3/IGFR cells were harvested and seeded in complete growth medium into a flat-bottomed 96 well tissue culture grade plate (Costar 3525) at 1.2×10^4 cells per well in a volume of 100 μl.
Growth medium was carefully removed from each well using a multi-channel pipette. Wells were carefully rinsed three times with 200 μl with HBSS. 100 μl of starvation medium was added to each well and the plate was re-incubated for 24 hours.
50 μl of a 4× concentrate of test compound was added to appropriate wells. Cells were incubated for 30 minutes with compound alone before the addition of IGF. For cells treated with IGF, an appropriate volume (i.e. 25 μl) of starvation medium was added to make a final volume per well up to 200 μl followed by 25 μl of IGF-1 at 160 ng/ml (to give a final concentration of 20 ng/ml). […] The plate was re-incubated for 20 hours.
The incorporation of BrdU in the cells (after a 4 h incorporation period) was assessed using the BrdU Cell Proliferation Elisa according to the manufacturer's protocol.

Compound	IC50	IC50 (Mus musculus)
Clc1cnc(N2CCCC2c2cc(C3CC3)no2)nc1Nc1cc(C2CC2)[nH]n1 (stereo not shown) [Example 5, 5-Chloro-2-[2-(3-cyclopropylisoxazol-5-yl]pyrrolidin-1-yl]-4-(5-cvlopropyl-1H-pyrazol-3-ylamino)phyrimidine]	0.13 µM	–
Cc1cc(Nc2nc(N3CCC[C@H]3c3cc(-c4nccs4)no3)ncc2Cl)n[nH]1 [Example 38, S-5-Chloro-2-{2-[3-(thiazol-2-yl)isoxazol-5-yl]pyrrolidin-1-yl}-4-(5-methyl-1H-pyrazol-3-ylamino)pyrimidine]	0.054 µM	–
Cc1cc(Nc2cc(C(F)(F)F)nc(N3CCCC3c3cc(-c4ccccn4)no3)n2)n[nH]1 (stereo not shown) [Example 35, 4-(5-Methyl-1H-pyrazol-3-ylamino)-2-{2-[3-(pyrid-2-yl)isoxazol-5-yl]pyrrolidin-1-yl}-6-trifluoromethylpyrimidine]	–	0.56 µM
Cc1cc(Nc2ccnc(N3CCCC3c3cc(-c4ccccn4)no3)n2)n[nH]1 (stereo not shown) [Example 23, 4-(5-Methyl-1H-pyrazol-3-ylamino)-2-{2-[3-(pyrid-2-yl)isoxazol-5-yl]pyrrolidin-1-yl}pyrimidine]	–	0.11 µM

Reference: US7579349B2, “4-(pyrazol-3-ylamino) pyrimidine derivatives for use in the treatment of cancer” (AstraZeneca AB, priority 2003, dated 2009)
